Laboratory results reported in PMC5381274 (FEBS letters, 2016).

Experiments:
NCI H929 cells = assay: JC1 BH3 profiling, NCI H929; assay type: cell-based; conditions: Figure 4A
K562 cells = assay: JC1 BH3 profiling, K562; assay type: cell-based; conditions: Figure 4B

| Compound | Mitochondrial depolarization in NCI H929 (BH3 profiling) (NCI H929 cells) | Mitochondrial depolarization in K562 (BH3 profiling) (K562 cells) |
| --- | --- | --- |
| CSCC[C@H](NC(=O)[C@H](CCCNC(=N)N)NC(=O)[C@H](CCCNC(=N)N)NC(=O)[C@H](CC(C)C)NC(=O)[C@H](CCC(=O)O)NC(=O)[C@H](CCCNC(=N)N)NC(=O)CNC(=O)[C@H](Cc1ccc(O)cc1)NC(=O)[C@H](CCCNC(=N)N)NC(=O)[C@H](CCC(N)=O)NC(=O)[C@H](C)NC(=O)[C@H](C)NC(=O)[C@H](Cc1c[nH]c2ccccc12)NC(=O)[C@H](CC(C)C)NC(C)=O)C(=O)N[C@@H](CO)C(=O)N[C@@H](CC(=O)O)C(=O)N[C@@H](CCC(=O)O)C(=O)N[C@@H](Cc1ccccc1)C(=O)N[C@@H](CCC(=O)O)C(=O)NCC(=O)N[C@@H](CO)C(=O)N[C@@H](Cc1ccccc1)C(=O)N[C@@H](CCCCN)C(=O)NCC(=O)N[C@@H](CC(C)C)C(N)=O [Bad] | not affected | – |
| Ac-WSSAAQLTAARLKALGDELHQ-NH2 [HRK] | not affected | – |
| CC[C@H](C)[C@H](NC(=O)[C@H](CCC(=O)O)NC(=O)[C@H](CC(=O)O)NC(=O)CNC(=O)[C@H](CC(C)C)NC(=O)[C@H](CCCNC(=N)N)NC(=O)[C@H](CCCNC(=N)N)NC(=O)[C@H](CC(C)C)NC(=O)CNC(=O)[C@H](CCC(N)=O)NC(=O)[C@@H](NC(=O)[C@H](CCSC)NC(=O)[C@H](Cc1c[nH]c2ccccc12)NC(=O)[C@@H](NC(=O)[C@H](CCC(=O)O)NC(=O)[C@@H]1CCCN1C(=O)[C@H](CCCNC(=N)N)NC(C)=O)[C@@H](C)CC)[C@@H](C)O)C(=O)N[C@@H](CC(N)=O)C(=O)N[C@@H](C)C(=O)N[C@@H](Cc1ccc(O)cc1)C(=O)N[C@@H](Cc1ccc(O)cc1)C(=O)N[C@@H](C)C(=O)N[C@@H](CCCNC(=N)N)C(N)=O [MS-1] | mitochondrial depolarization was observed | insensitive |
